One experiment concerns the target PLK4 (h) (Homo sapiens, UniProt O00444). Kind of experiment: PLK-4 human kinase inhibition, scintillation proximity assay (SPA). Format: biochemical. Conditions: read-out: PLK4 pIC50 (converted). A general note: Scintillation proximity formats need no separation of bound from free tracer.
In the next experiment the target is GSK3β (h) (Homo sapiens, UniProt P49841). Kind of experiment: GSK-3β human kinase inhibition, SPA. It is filed as biochemical. Conditions: read-out: GSK3b pIC50 (converted). The procedure, abridged: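 Scintillation proximity assay: GSK3β (1 μg/ml) with 1 μM biotinylated peptide, 1 μM ATP plus [γ-33P]ATP in Tris pH 7.4, MgCl2, DTT. 60 min at room temperature, stopped with EDTA and streptavidin PVT beads; phosphorylation read by Leadseeker imaging.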
Chain of GSK3β (h) (P49841 whole entry): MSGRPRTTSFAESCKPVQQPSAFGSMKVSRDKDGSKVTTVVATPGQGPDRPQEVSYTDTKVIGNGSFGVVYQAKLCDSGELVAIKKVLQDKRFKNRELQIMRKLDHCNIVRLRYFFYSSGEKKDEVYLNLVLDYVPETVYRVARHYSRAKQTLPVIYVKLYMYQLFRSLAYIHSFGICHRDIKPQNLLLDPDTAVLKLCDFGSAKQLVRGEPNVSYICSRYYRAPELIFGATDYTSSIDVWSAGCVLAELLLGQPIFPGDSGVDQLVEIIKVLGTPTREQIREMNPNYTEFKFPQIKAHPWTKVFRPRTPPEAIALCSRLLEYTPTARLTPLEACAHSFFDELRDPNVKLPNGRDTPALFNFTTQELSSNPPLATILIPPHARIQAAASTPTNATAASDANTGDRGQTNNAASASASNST

The next experiment addresses CDK1/CyclinB (h) (Homo sapiens, UniProt P06493). Kind of experiment: CDK1/CyclinB human kinase inhibition, Invitrogen's FRET assay (Z'lyte). The conditions noted are these: read-out: CDK1 pIC50 (converted). Format: biochemical. The procedure, abridged: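 Z'lyte FRET assay: human CDK1/CyclinB (0.2 μg/ml) with 2 μM Ser/Thr peptide 12 and 10 μM ATP in 50 mM Hepes pH 7.5, MgCl2, EGTA, Brij-35, 60 min at room temperature. Protease development 60 min, then emission ratio 460/538 nm read with excitation at 390 nm.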

The target of the next experiment is CDK4/CyclinD1 (h) (Homo sapiens, UniProt P11802). Kind of experiment: CDK4/CyclinD1 human kinase inhibition, SPA with GST-pRb substrate. Format: biochemical. The conditions noted are these: read-out: CDK4 pIC50 (converted). As for the experimental part:
The in vitro inhibition of a panel of kinases was assessed using either the scintillation proximity assay (SPA) as described by Cook, N. D. et al., Advances in Experimental Medicine and Biology (1991), 36; p. 525-528.
In the SPA technology the activity of the kinase of interest is measured using an appropriate biotinylated substrate that is incubated with the aforementioned kinase protein in the presence of (^33P) radiolabeled ATP. (^33P) Phosphorylation of the substrate is subsequently measured through binding of the phosphorylated substrate to streptavidine coated beads that are based on the scintillant poly(vinyl toluene) (PVT-Beads). The scintillation intensity is detected by imaging on Leadseeker.
All kinases are pre-diluted to a 10× working concentration prior to addition into the assay. The composition of the dilution buffer for each kinase is detailed below.
In a final reaction volume of 30 μl, CDK4/CyclinD1 (h) (2.5 μg/ml) is incubated with 50 mM Hepes pH 7.5, 8 mM NaF, 20 mM MgCl2, 1 mM DTT, 40 μg/ml of substrate GST-pRb, 2 nM [γ-^33P-ATP] (6.0 μCi/ml). After incubation of 60 minutes at room temperature, the reaction is stopped by addition of 40 μL of stop solution containing 8.7 mM EDTA, 0.17% Triton X-100, 25 mg/ml Glutathion SPA Beads (GE-healthcare). The plate is centrifuged and read for Scintillation topcount analyzer.

Another experiment deals with PLK1 T210D (h) (Homo sapiens, UniProt P53350, T210D). Briefly: PLK1 human kinase inhibition, SPA. It is filed as biochemical. Conditions: read-out: PLK1 pIC50 (converted). The procedure, abridged: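 Radiometric SPA with PLK1 T210D (0.125 ng/ml) in 50 mM Hepes pH 8.0, 2 mM MnCl2, 1 mM DTT, 2 μM biotinylated peptide, 0.1 μM ATP plus 2 nM [γ-33P]ATP. 40 min at room temperature, EDTA stop. Phosphorylated substrate captured on streptavidin PVT beads, scintillation imaged.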
Chain of PLK1 T210D (h) (P53350 whole entry T210D): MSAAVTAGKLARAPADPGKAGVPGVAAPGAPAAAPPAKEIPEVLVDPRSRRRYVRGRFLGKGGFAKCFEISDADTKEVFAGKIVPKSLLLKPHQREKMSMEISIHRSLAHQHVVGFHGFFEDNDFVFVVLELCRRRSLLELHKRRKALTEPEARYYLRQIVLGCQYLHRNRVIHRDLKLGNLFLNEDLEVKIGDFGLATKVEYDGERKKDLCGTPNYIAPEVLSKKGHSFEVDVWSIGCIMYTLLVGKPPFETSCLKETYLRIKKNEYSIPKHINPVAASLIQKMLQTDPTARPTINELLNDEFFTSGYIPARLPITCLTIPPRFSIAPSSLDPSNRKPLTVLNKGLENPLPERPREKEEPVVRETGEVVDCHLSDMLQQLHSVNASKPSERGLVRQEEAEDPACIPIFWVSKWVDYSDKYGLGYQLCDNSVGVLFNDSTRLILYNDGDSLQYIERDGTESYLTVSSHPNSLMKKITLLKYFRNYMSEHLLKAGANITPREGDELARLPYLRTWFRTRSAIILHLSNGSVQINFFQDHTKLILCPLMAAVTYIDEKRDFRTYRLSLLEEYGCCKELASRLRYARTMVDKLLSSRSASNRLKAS

The subject of a further experiment is HCT-116. Briefly: Cellular proliferation assay (Alamar blue), HCT-116. The conditions noted are these: Homo sapiens, 10% FCS, 72 hours with compound, Alamar blue 4 h. Format: cell-based. The procedure, abridged: (§1)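 Cells seeded 24 h without compound, then exposed to compounds for 72 h in 10% FCS at 37 °C, 5% CO2. Viability read by Alamar blue (resazurin 9 μg/ml) fluorescence at 544/590 nm after 6 h (U87-MG) or 24 h (A2780, MDA-MB-231) or 4 h (HCT-116) dye incubation; effect expressed relative to control cells.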
(The colour change of resazurin is a common sign of viable cells or microbes.)

For another experiment, the system named is H1299. Kind of experiment: Cellular proliferation assay (Alamar blue), H1299. Format: cell-based. The conditions noted are these: Homo sapiens, NCI-H1299; 10% FCS; 72 hours with compound; Alamar blue 4 h. The procedure, abridged:
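This proliferation assay on NCI-H1299 cells used an initial 24-hour compound-free incubation after seeding, followed by 72 hours of compound treatment with 10% FCS serum at 37° C. and 5% (v/v) CO2. Viable cells were quantified by a 4 h Alamar blue incubation and fluorescent plate reading at 544 nm/590 nm, and effects were expressed relative to control cells.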

The subject of another experiment is A2780. Kind of experiment: Cellular proliferation assay (Alamar blue), A2780. Conditions: Homo sapiens, 10% FCS, 72 hours with compound, Alamar blue 24 h, read-out: A2780 (cellular proliferation assay, Table 4) (converted). It is filed as cell-based. The procedure, abridged: as §1
The test system of the next experiment is MDA-MB-231. Kind of experiment: Cellular proliferation assay (Alamar blue), MDA-MB-231. It is filed as cell-based. The conditions noted are these: Homo sapiens, 10% FCS, 72 hours with compound, Alamar blue 24 h, read-out: MDA/MB231 (cellular proliferation assay, Table 4) (converted). The procedure, abridged: as §1

Chain of CDK4/CyclinD1 (h) (P11802 whole entry): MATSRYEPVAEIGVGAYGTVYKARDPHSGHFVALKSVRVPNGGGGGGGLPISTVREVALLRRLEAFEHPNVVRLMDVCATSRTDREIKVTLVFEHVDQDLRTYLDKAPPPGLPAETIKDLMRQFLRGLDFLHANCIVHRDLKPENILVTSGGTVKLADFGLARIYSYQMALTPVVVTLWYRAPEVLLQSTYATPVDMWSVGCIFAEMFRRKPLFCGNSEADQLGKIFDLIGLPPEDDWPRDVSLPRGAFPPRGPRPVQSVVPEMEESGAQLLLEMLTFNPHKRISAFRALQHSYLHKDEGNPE
Chain of CDK4/CyclinD1 (h) (P24385 whole entry partner): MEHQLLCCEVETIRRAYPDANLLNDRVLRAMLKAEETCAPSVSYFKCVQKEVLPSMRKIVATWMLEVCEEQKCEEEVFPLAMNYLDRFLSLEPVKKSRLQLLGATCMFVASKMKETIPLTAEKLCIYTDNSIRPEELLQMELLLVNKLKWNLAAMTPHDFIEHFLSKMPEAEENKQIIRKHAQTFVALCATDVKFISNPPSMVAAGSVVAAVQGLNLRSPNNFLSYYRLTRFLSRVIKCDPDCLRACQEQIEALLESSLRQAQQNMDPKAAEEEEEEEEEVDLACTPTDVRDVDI
Chain of CDK1/CyclinB (h) (P06493 whole entry): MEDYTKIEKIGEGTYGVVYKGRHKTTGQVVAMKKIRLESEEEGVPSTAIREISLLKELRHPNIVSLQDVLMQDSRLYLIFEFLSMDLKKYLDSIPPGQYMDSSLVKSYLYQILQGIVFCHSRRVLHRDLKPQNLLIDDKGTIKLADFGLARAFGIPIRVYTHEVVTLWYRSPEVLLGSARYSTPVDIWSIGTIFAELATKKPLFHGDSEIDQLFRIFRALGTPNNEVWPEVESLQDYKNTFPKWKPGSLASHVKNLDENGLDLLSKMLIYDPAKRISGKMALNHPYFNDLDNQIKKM
Chain of CDK1/CyclinB (h) (P14635 whole entry partner): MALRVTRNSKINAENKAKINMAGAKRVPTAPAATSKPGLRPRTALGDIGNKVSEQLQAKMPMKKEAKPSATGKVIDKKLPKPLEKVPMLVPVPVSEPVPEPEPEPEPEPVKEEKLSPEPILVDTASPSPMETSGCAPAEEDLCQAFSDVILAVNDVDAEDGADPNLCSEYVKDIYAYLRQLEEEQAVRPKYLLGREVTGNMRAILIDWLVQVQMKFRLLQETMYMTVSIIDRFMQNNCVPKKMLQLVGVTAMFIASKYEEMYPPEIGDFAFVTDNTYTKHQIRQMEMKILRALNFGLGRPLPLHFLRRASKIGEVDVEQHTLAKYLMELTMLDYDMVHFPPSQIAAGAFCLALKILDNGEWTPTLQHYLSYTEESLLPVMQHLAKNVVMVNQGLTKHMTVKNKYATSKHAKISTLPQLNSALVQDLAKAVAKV
Chain of PLK4 (h) (O00444 whole entry): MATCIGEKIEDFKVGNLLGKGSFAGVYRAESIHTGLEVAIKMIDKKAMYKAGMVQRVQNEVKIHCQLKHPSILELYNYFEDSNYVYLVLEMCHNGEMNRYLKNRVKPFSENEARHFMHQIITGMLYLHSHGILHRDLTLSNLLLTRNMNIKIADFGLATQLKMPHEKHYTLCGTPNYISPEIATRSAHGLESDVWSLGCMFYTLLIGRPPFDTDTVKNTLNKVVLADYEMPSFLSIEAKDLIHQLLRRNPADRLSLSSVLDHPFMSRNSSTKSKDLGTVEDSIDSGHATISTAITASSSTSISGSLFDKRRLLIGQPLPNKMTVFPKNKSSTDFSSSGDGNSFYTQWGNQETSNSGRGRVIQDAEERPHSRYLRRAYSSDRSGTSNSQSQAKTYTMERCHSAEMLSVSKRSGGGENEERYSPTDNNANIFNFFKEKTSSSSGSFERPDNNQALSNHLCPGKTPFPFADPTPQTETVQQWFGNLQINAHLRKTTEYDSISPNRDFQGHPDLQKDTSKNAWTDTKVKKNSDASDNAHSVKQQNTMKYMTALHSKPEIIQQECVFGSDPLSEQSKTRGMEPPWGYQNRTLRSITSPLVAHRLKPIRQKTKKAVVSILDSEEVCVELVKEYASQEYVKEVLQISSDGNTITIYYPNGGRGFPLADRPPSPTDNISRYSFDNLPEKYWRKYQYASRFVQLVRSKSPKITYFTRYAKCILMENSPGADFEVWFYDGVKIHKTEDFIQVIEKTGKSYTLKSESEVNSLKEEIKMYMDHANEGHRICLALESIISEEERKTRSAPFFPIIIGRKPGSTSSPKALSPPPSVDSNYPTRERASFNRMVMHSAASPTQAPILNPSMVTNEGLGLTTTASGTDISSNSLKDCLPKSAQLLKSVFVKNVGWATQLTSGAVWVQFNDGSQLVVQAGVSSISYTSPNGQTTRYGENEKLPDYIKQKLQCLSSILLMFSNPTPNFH

As to `O=C1NCc2cccc(c2)-c2ccnc(n2)Nc2cccc(c2)CN[C@H]1Cc1ccccc1` [Compound 185], the IC50 on PLK4 (h) was 0.794 µM; on GSK3β (h), 0.0275 µM; at CDK1/CyclinB (h), 4.79 µM; on CDK4/CyclinD1 (h) it was more than 10 µM; on PLK1 T210D (h) it was more than 10 µM; in the experiment on HCT-116 it was 6.92 µM. The IC50 in the experiment on H1299 was 2.63 µM; in the experiment on A2780, more than 10 µM; in the experiment on MDA-MB-231, more than 10 µM.

For `O=C1NCc2cccc(c2)-c2ccnc(n2)Nc2cc(ccc2Cl)CN2CCC[C@@H]12` [Compound 51], the IC50 at PLK4 (h), on GSK3β (h), at CDK1/CyclinB (h), on CDK4/CyclinD1 (h), on PLK1 T210D (h) and in the experiment on HCT-116 was more than 10 µM throughout. The IC50 in the experiment on H1299, with A2780 and in the experiment on MDA-MB-231 was more than 10 µM each time.

In the case of `O=C1NCc2cccc(c2)-c2ccnc(n2)Nc2cccc(c2)CN2CCC1CC2` [Compound 124], the IC50 was 8.71 µM at PLK4 (h); 0.457 µM at GSK3β (h); 0.372 µM on CDK1/CyclinB (h); 1.7 µM on CDK4/CyclinD1 (h); more than 10 µM on PLK1 T210D (h); 2.88 µM with HCT-116. Further, the IC50 in the experiment on H1299, in the experiment with A2780 and in the experiment on MDA-MB-231 was more than 10 µM throughout.

For `COc1ccc2cc1CN(C)CCCNC(=O)[C@@H]1CCCN1Cc1cc(NCCc3ccccc3)cc(c1)Nc1nccc-2n1` [Compound 167], the IC50 was 3.55 µM on PLK4 (h); more than 10 µM at GSK3β (h); more than 10 µM at CDK1/CyclinB (h); more than 10 µM at CDK4/CyclinD1 (h); more than 10 µM at PLK1 T210D (h); 2.24 µM with HCT-116. Besides, the IC50 is more than 10 µM in the experiment with H1299, 2.75 µM in the experiment with A2780 and 6.46 µM in the experiment with MDA-MB-231.

For the compound `COc1cc2cc(c1)Nc1nccc(n1)-c1ccc(cc1)CN(C)CCCNC(=O)C1CCN(CC1)C2` [Compound 66], the IC50 was 1.35 µM at PLK4 (h); 1.07 µM on GSK3β (h); more than 10 µM on CDK1/CyclinB (h); more than 10 µM at CDK4/CyclinD1 (h); more than 10 µM on PLK1 T210D (h); 1.02 µM in the experiment with HCT-116. The IC50 in the experiment with H1299 was more than 10 µM; with A2780, 6.31 µM; in the experiment with MDA-MB-231, 8.32 µM.

As for `COc1ccc2cc1CN(C)CCNC(=O)[C@@H]1CCCN1Cc1cc(cc(NC(C)C)c1)Nc1nccc-2n1` [Compound 165], the IC50 at PLK4 (h) is 2.82 µM; at GSK3β (h) it was more than 10 µM; on CDK1/CyclinB (h), more than 10 µM; on CDK4/CyclinD1 (h), more than 10 µM; on PLK1 T210D (h) it was more than 10 µM; in the experiment with HCT-116, 5.62 µM. Besides, the IC50 with H1299, in the experiment with A2780 and with MDA-MB-231 was more than 10 µM throughout.

On to `C[C@@H]1NCc2cc(ccc2N2CCOCC2)Nc2nccc(n2)-c2cccc(c2)CNC1=O` [Compound 182], for which the IC50 on PLK4 (h) was 0.692 µM; on GSK3β (h) it was 0.661 µM; on CDK1/CyclinB (h) it was 7.59 µM; at CDK4/CyclinD1 (h) it was 6.03 µM; at PLK1 T210D (h) it was more than 10 µM; in the experiment on HCT-116 it was more than 10 µM. The IC50 with H1299, in the experiment on A2780 and in the experiment on MDA-MB-231 was more than 10 µM throughout.

On to `O=C1NCc2ccc(cc2)-c2ccnc(n2)Nc2ccc(N3CCOCC3)c(c2)CN2CCC1CC2` [Compound 12], for which the IC50 on PLK4 (h) is 0.49 µM; at GSK3β (h), approximately 10.5 µM; at CDK1/CyclinB (h), more than 10 µM; at CDK4/CyclinD1 (h) it was 1.58 µM; at PLK1 T210D (h) it was more than 10 µM; in the experiment on HCT-116, 3.8 µM. For the same compound, the results for the IC50 in the experiment on H1299, in the experiment with A2780 and in the experiment on MDA-MB-231 were 1.58 µM, 1.74 µM and 9.33 µM, respectively.

As for `CC(C)Nc1cc2cc(c1)Nc1nccc(n1)-c1ccc(cc1)CN(C)CCCNC(=O)C1CCN(CC1)C2` [Compound 65], the IC50 is 1.23 µM at PLK4 (h); 3.24 µM on GSK3β (h); more than 10 µM at CDK1/CyclinB (h); more than 10 µM on CDK4/CyclinD1 (h); more than 10 µM at PLK1 T210D (h); more than 10 µM in the experiment on HCT-116. Also, the IC50 in the experiment with H1299, in the experiment with A2780 and in the experiment on MDA-MB-231 was more than 10 µM in each case.

For the compound `C[C@@H]1NCCc2cccc(c2)-c2ccnc(n2)Nc2ccc(N3CCOCC3)c(c2)CNC1=O` [Compound 100], the IC50 on PLK4 (h) is 1.15 µM; on GSK3β (h), 0.0759 µM; at CDK1/CyclinB (h) it was 0.151 µM; at CDK4/CyclinD1 (h) it was 0.2 µM; on PLK1 T210D (h), more than 10 µM; with HCT-116 it was 0.724 µM. Also, the figures for the IC50 in the experiment on H1299, in the experiment on A2780 and in the experiment with MDA-MB-231 were 2.95 µM, 3.02 µM and 3.47 µM, respectively.

With `COc1ccc2cc1CN(C)CCNC(=O)[C@H](CO)NCc1cc(Br)cc(c1)Nc1nccc-2n1` [Compound 119], the IC50 was 3.89 µM on PLK4 (h); 6.03 µM on GSK3β (h); more than 10 µM on CDK1/CyclinB (h); more than 10 µM at CDK4/CyclinD1 (h); more than 10 µM at PLK1 T210D (h); 2.29 µM with HCT-116. The IC50 in the experiment on H1299, in the experiment on A2780 and in the experiment with MDA-MB-231 was more than 10 µM throughout.

Take `CN1CCNC(=O)[C@H](CO)NCc2cccc(c2)Nc2nccc(n2)-c2ccc(cc2)C1` [Compound 114]: the IC50 was 1.2 µM at PLK4 (h); 2.82 µM at GSK3β (h); more than 10 µM on CDK1/CyclinB (h); more than 10 µM at CDK4/CyclinD1 (h); more than 10 µM on PLK1 T210D (h); more than 10 µM in the experiment with HCT-116. Besides, the IC50 in the experiment with H1299, in the experiment on A2780 and with MDA-MB-231 was more than 10 µM in each case.

With `O=C1NCc2cccc(c2)-c2ccnc(n2)Nc2cc(ccc2Cl)CN[C@H]1CO` [Compound 188], the IC50 at PLK4 (h) is 2.09 µM; at GSK3β (h), 6.61 µM; at CDK1/CyclinB (h) it was 9.12 µM; at CDK4/CyclinD1 (h) it was more than 10 µM; on PLK1 T210D (h) it was more than 10 µM; with HCT-116 it was more than 10 µM. For the same compound, the IC50 in the experiment on H1299, with A2780 and with MDA-MB-231 was more than 10 µM each time.

Consider `O=C1NCc2cccc(c2)-c2ccnc(n2)Nc2ccc(cc2)CN[C@H]1Cc1ccccc1` [Compound 192], for which the IC50 on PLK4 (h), on GSK3β (h), at CDK1/CyclinB (h), on CDK4/CyclinD1 (h), at PLK1 T210D (h) and in the experiment with HCT-116 was more than 10 µM in each case. The IC50 with H1299, in the experiment on A2780 and in the experiment on MDA-MB-231 was more than 10 µM in each case.

Regarding `CN1CCC(NC(=O)c2ccc3cc2CN2CCC[C@H]2C(=O)NCc2cccc(c2)-c2ccnc(n2)N3)CC1` [Compound 47], the IC50 was 0.646 µM at PLK4 (h); 0.398 µM on GSK3β (h); 2 µM at CDK1/CyclinB (h); 1.2 µM on CDK4/CyclinD1 (h); more than 10 µM on PLK1 T210D (h); 2.45 µM in the experiment on HCT-116. Besides, the IC50 with H1299 is 9.55 µM; with A2780, 3.72 µM; in the experiment with MDA-MB-231, 5.13 µM.
